Experimental data reported in patent US9688695B2, “Imidazothiadiazole and imidazopyrazine derivatives as protease activated receptor 4 (PAR4) inhibitors for treating platelet aggregation” (BRISTOL-MYERS SQUIBB COMPANY, priority 2012, dated 2017).

Key:
[1] = tested on: carotid artery thrombosis; experiment: cynomolgus monkey electrolytic injury-induced carotid artery thrombosis model; format: in vivo
[2] = tested on: carotid artery thrombosis; experiment: Cynomolgus monkey electrolytic injury-induced carotid artery thrombosis model; format: in vivo; settings: oral, electrically-induced arterial thrombus model
From the text: The efficacy of the PAR4 antagonists of the present invention in preventing thrombosis can also be measured in a variety of in vivo assays. Exemplary mammals that can provide models of thrombosis and hemostasis to test the effectiveness of the PAR4 antagonists of the present invention as antithrombotic agents include, but are not limited to, guinea pigs and primates. Relevant efficacy models include, but are not limited to, electrolytic injury-induced carotid artery thrombosis, FeCl3-induced carotid artery thrombosis and arteriovenous-shunt thrombosis. […]
On the day of the study, compounds or vehicles were administered orally at 1 to 2 hours before the experiment. […] Blood pressure and heart rate were monitored to maintain normal vital signs.
Carotid blood flow was measured with an appropriately sized TRANSONIC® flow probe and a TRANSONIC® perivascular flowmeter (TS420 Model, Transonic Systems Inc., Ithaca, N.Y.). It was continuously recorded over a 90-min period to monitor thrombosis-induced occlusion. Integrated carotid blood flow was measured by the area under the flow-time curve. It was expressed as percent of total control carotid blood flow, which would result if control blood flow had been maintained continuously for 90 min. […]

[3] = biological target: T1, PAR4 (Homo sapiens (Human), UniProt Q96RI0); experiment: Gamma thrombin induced platelet aggregation assay (PRP assay); format: cell-based; settings: human platelet rich plasma, 96-well microplate
Protocol: Platelet aggregation can be monitored in a 96-well microplate aggregation assay format or using standard platelet aggregometer.
The platelet rich plasma was isolated by centrifugation at 170 g for 14 minutes.
The ability of the compounds of the current invention to inhibit platelet aggregation induced by gamma-thrombin was tested in a 96-well microplate aggregation assay format. Briefly, PRP or washed platelet suspension (100 μl) was pre-incubated for 5 minutes at room temperature with varying concentrations of compounds. Aggregation was initiated by ˜10-50 nM gamma thrombin (Haematologic Technologies, Essex Junction, Vt.), which was titrated daily to achieve 80% platelet aggregation. Refludan at 1 U/mL (Berlex, Montville, N.J.) was added to the gamma thrombin sample to prevent PAR1 activation induced by residual alpha-thrombin contamination. The plate was then placed into a 37° C. Molecular Devices (Sunnyvale, Calif.) SPECTRAMAX® Plus Plate Reader. […] The plate also included an untreated control sample which served as ODmax, while buffer containing no platelets was the ODmin. Platelet aggregation was determined by subtracting the ODmax from the ODmin for the 100% aggregation value. In experimental samples, the observed transmission was subtracted from the minimum value and then compared to the 100% aggregation value to determine the percentage aggregation. IC50 values are determined using Excel Fit software.

[4] = biological target: T1, PAR4; experiment: FLIPR assay in PAR4-expressing HEK293 cells (PAR4 antagonist activity, calcium mobilization); format: cell-based; settings: H-Ala-Phe(4-F)-Pro-Gly-Trp-Leu-Val-Lys-Asn-Gly-NH2-induced calcium mobilization
Method in brief: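 HEK293 EBNA cells stably expressing human PAR4 (also endogenous PAR1) preincubated 30 min at room temperature with compound in HBSS/10 mM HEPES, 0.67% DMSO final. PAR4 agonist peptide then added and intracellular calcium mobilization monitored by fluorescence.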

[5] = biological target: PAR1 (Homo sapiens (Human), UniProt P25116); settings: ACS patients, phase III; cited from earlier work
Sequence of PAR1 (P25116 22-425): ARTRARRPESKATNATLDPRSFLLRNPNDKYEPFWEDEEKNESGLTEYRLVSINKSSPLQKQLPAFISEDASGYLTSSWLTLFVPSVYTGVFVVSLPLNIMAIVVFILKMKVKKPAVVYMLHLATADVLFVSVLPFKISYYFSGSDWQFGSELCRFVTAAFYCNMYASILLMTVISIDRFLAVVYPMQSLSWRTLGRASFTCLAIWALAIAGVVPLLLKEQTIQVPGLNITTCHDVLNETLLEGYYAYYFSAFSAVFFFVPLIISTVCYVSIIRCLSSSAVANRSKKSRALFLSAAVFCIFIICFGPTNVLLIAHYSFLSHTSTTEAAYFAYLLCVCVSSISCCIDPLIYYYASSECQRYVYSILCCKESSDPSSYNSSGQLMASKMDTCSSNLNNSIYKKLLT

T1 sequence (Q96RI0 18-385): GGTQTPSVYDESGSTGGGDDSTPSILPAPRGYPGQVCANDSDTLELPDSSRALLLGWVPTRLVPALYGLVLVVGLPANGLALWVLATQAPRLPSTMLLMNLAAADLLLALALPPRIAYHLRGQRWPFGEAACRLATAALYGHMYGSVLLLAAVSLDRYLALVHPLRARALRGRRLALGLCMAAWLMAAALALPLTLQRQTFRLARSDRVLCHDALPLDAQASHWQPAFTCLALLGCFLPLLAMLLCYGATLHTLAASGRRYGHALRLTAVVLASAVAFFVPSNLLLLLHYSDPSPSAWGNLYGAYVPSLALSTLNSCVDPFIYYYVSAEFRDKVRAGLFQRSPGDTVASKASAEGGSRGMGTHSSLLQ

| SMILES | IC50 [3] | EC50 [4] | further results |
| --- | --- | --- | --- |
| COc1cc(OCc2csc(-c3ccccc3)n2)c2cc(-c3cn4nc(OC)sc4n3)oc2c1 [Example 3, 2-Methoxy-6-(6-methoxy-4-((2-phenylthiazol-4-yl)methoxy)benzofuran-2-yl)imidazo[2,1-b][1,3,4]thiadiazole] | – | – | antithrombotic efficacy (FIG. 1C) [1]: antithrombotic efficacy; antithrombotic efficacy (dose response, FIG. 1C) [2]: demonstrating the in vivo antithrombotic efficacy |
| COc1cc(OCc2csc(NCCN3CCOCC3)n2)c2cc(-c3cn4nc(C)ccc4n3)oc2c1 [Example 244] | > 3000 nM | 909 nM | – |
| COc1cc(OCc2csc(NCc3cccnc3)n2)c2cc(-c3cn4nc(C)ccc4n3)oc2c1 [Example 245] | 3130 nM | 5.5 nM | – |
| COc1cc(OCc2csc(N(C)CCO)n2)c2cc(-c3cn4nc(C)ccc4n3)oc2c1 [Example 249] | > 3000 nM | 15 nM | – |
| COc1cc(OCc2csc(NCCCN3CCCC3=O)n2)c2cc(-c3cn4nc(C)ccc4n3)oc2c1 [Example 254] | > 3000 nM | 19 nM | – |
| COc1cc(OCc2csc(NCC3CCCO3)n2)c2cc(-c3cn4nc(C)ccc4n3)oc2c1 (stereo not shown) [Example 256] | > 3000 nM | 7.8 nM | – |
| COc1cc(OCc2csc(N3CCC3)n2)c2cc(-c3cn4nc(C)ccc4n3)oc2c1 [Example 257] | > 3000 nM | 7.5 nM | – |
| COc1cc(OCc2csc(Nc3ccc4[nH]ccc4c3)n2)c2cc(-c3cn4nc(C)ccc4n3)oc2c1 [Example 261] | > 3000 nM | 39 nM | – |
| COc1cc(OCc2csc(Nc3cc(C)cc(C)n3)n2)c2cc(-c3cn4nc(C)ccc4n3)oc2c1 [Example 264] | > 3000 nM | 207 nM | – |
| COc1cc(OCc2csc(Nc3cc(F)ccc3F)n2)c2cc(-c3cn4nc(C)ccc4n3)oc2c1 [Example 265] | > 3000 nM | 48 nM | – |
| COc1cc(OCc2csc(Nc3cc(C)ccc3F)n2)c2cc(-c3cn4nc(C)ccc4n3)oc2c1 [Example 266] | > 3000 nM | 16 nM | – |
| COc1cc(OCc2csc(N3CCN(c4cccc(Cl)c4)CC3)n2)c2cc(-c3cn4nc(C)ccc4n3)oc2c1 [Example 268] | 2360 nM | 1.7 nM | – |
| COc1cc(OCc2csc(N3CCC(N4CCOCC4)CC3)n2)c2cc(-c3cn4nc(C)ccc4n3)oc2c1 [Example 273] | > 3000 nM | 53 nM | – |
| COc1cc(OCc2csc(N3CCC[C@@H]3C)n2)c2cc(-c3cn4nc(C)ccc4n3)oc2c1 [Example 274] | > 3000 nM | 3.4 nM | – |
| COc1cc(OCc2csc(N3CCC[C@H]3C)n2)c2cc(-c3cn4nc(C)ccc4n3)oc2c1 [Example 275] | 2630 nM | 4.2 nM | – |
| COc1cc(OCc2csc(N3CCN(C)C(C)C3)n2)c2cc(-c3cn4nc(C)ccc4n3)oc2c1 (stereo not shown) [Example 276] | > 3000 nM | 24 nM | – |
| COc1cc(OCc2csc(N(C)C)n2)c2cc(-c3cn4nc(C)ccc4n3)oc2c1 [Example 279] | > 3000 nM | 7.3 nM | – |
| COc1cc(OCc2csc(Nc3ccc4scnc4c3)n2)c2cc(-c3cn4nc(C)ccc4n3)oc2c1 [Example 281] | > 3000 nM | 0.6 nM | – |
| COc1cc(OCc2csc(Nc3ccc(F)c(C)n3)n2)c2cc(-c3cn4nc(C)ccc4n3)oc2c1 [Example 282] | > 3000 nM | 3480 nM | – |
| COc1cc(OCc2csc(N3CCN(c4ccc(C)cn4)CC3)n2)c2cc(-c3cn4nc(C)ccc4n3)oc2c1 [Example 285] | 2340 nM | 2.9 nM | – |
| COc1cc(OCc2csc(-c3ccc(C(=O)NCC(F)(F)F)cc3)n2)c2cc(-c3cn4nc(OC)sc4n3)oc2c1 [Example 305] | 2 nM | 1 nM | – |
| COc1cc(OCc2csc(-c3ccc(C(=O)N(C)CCC#N)cc3)n2)c2cc(-c3cn4nc(OC)sc4n3)oc2c1 [Example 311] | 2 nM | 0.65 nM | – |
| CCOC(=O)N[C@@H]1CC[C@@H]2[C@@H](C1)C[C@H]1C(=O)O[C@H](C)[C@H]1[C@H]2/C=C/c1ccc(-c2cccc(F)c2)cn1 [vorapaxar] | – | – | cardiovascular events [5]: did not significantly reduce cardiovascular events; risk of major bleeding [5]: significantly increased the risk of major bleeding |
